Test results reported in ChEMBL document CHEMBL3352588, “Targeting the homologous recombination pathway by small molecule modulators” (Bioorg Med Chem Lett, 2014).

Columns and labels:
[1] = target: T1, DNA repair and recombination protein RAD54-like (Homo sapiens, UniProt Q92698); assay: Inhibition of RAD54 (unknown origin) ATPase activity assessed as generation of reactive oxygen species
T1 sequence (Q92698 whole entry): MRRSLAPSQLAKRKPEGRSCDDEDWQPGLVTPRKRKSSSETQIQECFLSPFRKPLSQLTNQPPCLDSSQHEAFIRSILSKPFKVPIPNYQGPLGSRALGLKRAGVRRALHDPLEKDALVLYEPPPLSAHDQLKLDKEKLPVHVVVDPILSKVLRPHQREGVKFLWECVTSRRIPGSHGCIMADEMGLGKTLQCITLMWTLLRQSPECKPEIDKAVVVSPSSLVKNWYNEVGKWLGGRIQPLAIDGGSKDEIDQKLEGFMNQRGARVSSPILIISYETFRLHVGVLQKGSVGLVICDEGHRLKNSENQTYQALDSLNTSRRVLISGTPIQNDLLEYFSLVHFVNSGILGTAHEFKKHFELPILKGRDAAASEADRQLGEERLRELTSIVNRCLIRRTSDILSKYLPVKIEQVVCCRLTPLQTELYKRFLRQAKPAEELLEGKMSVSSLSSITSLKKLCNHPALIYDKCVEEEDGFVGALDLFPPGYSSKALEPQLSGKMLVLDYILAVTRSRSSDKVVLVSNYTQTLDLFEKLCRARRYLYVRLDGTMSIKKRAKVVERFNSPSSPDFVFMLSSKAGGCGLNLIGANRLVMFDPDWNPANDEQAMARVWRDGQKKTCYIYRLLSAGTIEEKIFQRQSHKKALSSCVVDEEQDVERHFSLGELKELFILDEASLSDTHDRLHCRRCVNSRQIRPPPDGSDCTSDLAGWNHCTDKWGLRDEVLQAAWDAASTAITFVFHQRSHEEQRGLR

[2] = target: DNA repair protein RAD51 homolog 1 (Homo sapiens) (UniProt Q06609); assay: Inhibition of RAD51 (unknown origin) binding to ssDNA
[3] = target: Bifunctional 3'-5' exonuclease/ATP-dependent helicase WRN (Homo sapiens, UniProt Q14191); assay: Inhibition of WRN helicase (unknown origin)
Chain of Bifunctional 3'-5' exonuclease/ATP-dependent helicase WRN (Q14191 whole entry): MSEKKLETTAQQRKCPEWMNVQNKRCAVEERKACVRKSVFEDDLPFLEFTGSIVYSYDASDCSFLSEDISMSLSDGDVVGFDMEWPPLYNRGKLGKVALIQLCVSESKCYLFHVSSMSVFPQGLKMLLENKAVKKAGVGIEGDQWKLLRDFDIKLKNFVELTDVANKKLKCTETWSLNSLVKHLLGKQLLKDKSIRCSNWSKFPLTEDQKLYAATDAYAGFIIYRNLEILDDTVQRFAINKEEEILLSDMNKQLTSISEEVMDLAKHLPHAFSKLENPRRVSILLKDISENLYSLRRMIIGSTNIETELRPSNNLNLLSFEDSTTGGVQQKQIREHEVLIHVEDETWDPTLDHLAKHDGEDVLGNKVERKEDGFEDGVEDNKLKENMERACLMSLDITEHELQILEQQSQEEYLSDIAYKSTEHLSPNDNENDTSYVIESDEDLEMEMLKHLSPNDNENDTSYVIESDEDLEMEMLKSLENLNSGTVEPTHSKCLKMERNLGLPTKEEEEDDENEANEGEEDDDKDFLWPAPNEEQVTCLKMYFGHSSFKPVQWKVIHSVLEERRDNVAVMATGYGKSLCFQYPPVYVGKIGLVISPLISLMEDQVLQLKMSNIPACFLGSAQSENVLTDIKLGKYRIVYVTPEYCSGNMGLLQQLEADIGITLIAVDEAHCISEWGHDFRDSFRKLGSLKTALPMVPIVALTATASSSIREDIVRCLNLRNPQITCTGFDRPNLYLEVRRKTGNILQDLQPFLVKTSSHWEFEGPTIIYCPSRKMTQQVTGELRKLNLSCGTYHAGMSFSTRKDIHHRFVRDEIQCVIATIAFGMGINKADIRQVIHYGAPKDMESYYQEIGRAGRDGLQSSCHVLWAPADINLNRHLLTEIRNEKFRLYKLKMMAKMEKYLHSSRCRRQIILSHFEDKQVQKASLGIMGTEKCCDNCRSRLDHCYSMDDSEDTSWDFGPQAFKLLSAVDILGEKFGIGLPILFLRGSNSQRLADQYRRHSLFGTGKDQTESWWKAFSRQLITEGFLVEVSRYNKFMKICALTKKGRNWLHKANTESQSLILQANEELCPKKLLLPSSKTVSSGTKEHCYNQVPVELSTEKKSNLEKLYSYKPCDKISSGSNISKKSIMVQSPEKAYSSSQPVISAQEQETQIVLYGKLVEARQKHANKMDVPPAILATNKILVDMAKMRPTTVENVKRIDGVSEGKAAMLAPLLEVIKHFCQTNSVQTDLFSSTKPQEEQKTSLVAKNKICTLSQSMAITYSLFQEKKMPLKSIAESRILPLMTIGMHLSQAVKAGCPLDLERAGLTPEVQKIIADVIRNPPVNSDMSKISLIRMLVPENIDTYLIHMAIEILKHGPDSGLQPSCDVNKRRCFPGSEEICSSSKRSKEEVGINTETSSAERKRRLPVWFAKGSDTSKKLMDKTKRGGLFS

[4] = target: T2, DNA repair protein RAD51 homolog 1 (Homo sapiens) (UniProt Q06609); assay: Induction of RAD51 in cisplatin-treated neonatal human skin fibroblast assessed as increase in survival at 7.5 uM relative to untreated control
T2 sequence (whole entry): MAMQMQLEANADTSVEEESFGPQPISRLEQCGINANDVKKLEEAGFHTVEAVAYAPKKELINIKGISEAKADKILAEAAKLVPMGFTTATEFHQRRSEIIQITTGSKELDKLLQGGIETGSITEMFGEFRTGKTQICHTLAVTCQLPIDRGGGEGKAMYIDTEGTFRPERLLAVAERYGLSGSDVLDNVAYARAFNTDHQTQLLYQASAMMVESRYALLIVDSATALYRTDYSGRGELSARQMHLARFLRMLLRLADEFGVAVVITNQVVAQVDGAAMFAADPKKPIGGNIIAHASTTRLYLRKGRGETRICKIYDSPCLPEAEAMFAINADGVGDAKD

[5] = target: T2, DNA repair protein RAD51 homolog 1 (Homo sapiens); assay: Inhibition of RAD51 in human HeLa cells expressing DR-GFP construct assessed as reduction in […]-induced homologous recombination at 20 uM; assay type: cell-based
[6] = target: T2, DNA repair protein RAD51 homolog 1 (Homo sapiens); assay: Inhibition of RAD51 in human MCF7 cells assessed as reduction in IR-induced RAD51 foci formation at 20 uM; assay type: cell-based

**Q.** How did the EC50 [1] turn out when COC1=C(N)C(=O)c2nc(-c3nc(C(=O)O)c(C)c(-c4ccc(OC)c(OC)c4O)c3N)ccc2C1=O [STREPTONIGRIN] was run?
**A.** 16.5 µM

**Q.** How did the EC50 [2] turn out when COc1ccc(C2=C(N3CCOCC3)C(=O)N(c3ccc(Cl)c(Cl)c3)C2=O)cc1 was run?
**A.** 44 µM

**Q.** CCC(=O)OCN1C(=O)C=CC1=O was tested. Which IC50 [3] did it give?
**A.** 20 µM

**Q.** For O=C(Nc1ccc(Br)cc1)c1ccc(Br)c(S(=O)(=O)NCc2ccccc2)c1, which fold change (FC) [4] is on record?
**A.** 1.5

**Q.** How did the IC50 [3] turn out when O=C(Nc1ccc(F)c(C(F)(F)F)c1)Nc1nnc(-c2ccncc2)s1 was run?
**A.** 5 µM

**Q.** Which fold change (FC) [5] does the source give for O=S(=O)(Cc1ccccc1)N1C=Cc2ccccc2C1c1c[nH]c2ccccc12 (configuration not stated) here?
**A.** 10

**Q.** What about the fold change (FC) [6] of the same compound?
**A.** 2
